Measured values as given in PubChem BioAssay AID1963430 (Molecular Pharmacology Branch, DTP, NCI, 2024).

System: 521955-158-R2-J5-PDC complex spheroid growth, % test/control
Assay: Anticancer human tumor 521955-158-R2-J5-PDC patient-derived pancreatic carcinoma cell line growth inhibition [Asc]
Conditions: for IC50: curve of first compound; for viability, T/C: stronger effect = lower value; active = viability on the fitted dose curve at most 10% of control; inactive = the rest
Summary of the method: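 Spheroid model: tumor line + HUVEC + hMSC. Single agents and combinations; top conc. at/near clinical Cmax (10 microM if undetermined), half-log dilutions. DMSO stocks at 800-fold test concentration.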

[1] = second compound 0.01 µM, first compound 0.0316 µM
[2] = second compound 0.01 µM, first compound 0.1 µM
[3] = second compound 0.01 µM, first compound 0.316 µM
[4] = second compound 0.01 µM, first compound 1 µM
[5] = second compound 0.01 µM, first compound 3.16 µM
[6] = second compound 0.01 µM, first compound 10 µM
[7] = second compound 0.0316 µM, first compound 0.0316 µM
[8] = second compound 0.0316 µM, first compound 0.1 µM
[9] = second compound 0.0316 µM, first compound 0.316 µM
[10] = second compound 0.0316 µM, first compound 1 µM
[11] = second compound 0.0316 µM, first compound 3.16 µM
[12] = second compound 0.0316 µM, first compound 10 µM
[13] = second compound 0.1 µM, first compound 0.0316 µM
[14] = second compound 0.1 µM, first compound 0.1 µM
[15] = second compound 0.1 µM, first compound 0.316 µM
[16] = second compound 0.1 µM, first compound 1 µM
[17] = second compound 0.1 µM, first compound 3.16 µM
[18] = second compound 0.1 µM, first compound 10 µM
[19] = second compound 0.316 µM, first compound 0.0316 µM
[20] = second compound 0.316 µM, first compound 0.1 µM
[21] = second compound 0.316 µM, first compound 0.316 µM
[22] = second compound 0.316 µM, first compound 1 µM
[23] = second compound 0.316 µM, first compound 3.16 µM
[24] = second compound 0.316 µM, first compound 10 µM
[25] = second compound 1 µM, first compound 0.0316 µM
[26] = second compound 1 µM, first compound 0.1 µM
[27] = second compound 1 µM, first compound 0.316 µM
[28] = second compound 1 µM, first compound 1 µM
[29] = second compound 1 µM, first compound 3.16 µM
[30] = second compound 1 µM, first compound 10 µM
[31] = second compound 0.01 µM, first compound 0.00949 µM
[32] = second compound 0.01 µM, first compound 0.03 µM
[33] = second compound 0.01 µM, first compound 0.0949 µM
[34] = second compound 0.01 µM, first compound 0.3 µM
[35] = second compound 0.01 µM, first compound 0.949 µM
[36] = second compound 0.01 µM, first compound 3 µM
[37] = second compound 0.0316 µM, first compound 0.00949 µM
[38] = second compound 0.0316 µM, first compound 0.03 µM
[39] = second compound 0.0316 µM, first compound 0.0949 µM
[40] = second compound 0.0316 µM, first compound 0.3 µM
[41] = second compound 0.0316 µM, first compound 0.949 µM
[42] = second compound 0.0316 µM, first compound 3 µM
[43] = second compound 0.1 µM, first compound 0.00949 µM
[44] = second compound 0.1 µM, first compound 0.03 µM
[45] = second compound 0.1 µM, first compound 0.0949 µM
[46] = second compound 0.1 µM, first compound 0.3 µM
[47] = second compound 0.1 µM, first compound 0.949 µM
[48] = second compound 0.1 µM, first compound 3 µM
[49] = second compound 0.316 µM, first compound 0.00949 µM
[50] = second compound 0.316 µM, first compound 0.03 µM
[51] = second compound 0.316 µM, first compound 0.0949 µM
[52] = second compound 0.316 µM, first compound 0.3 µM
[53] = second compound 0.316 µM, first compound 0.949 µM
[54] = second compound 0.316 µM, first compound 3 µM
[55] = second compound 1 µM, first compound 0.00949 µM
[56] = second compound 1 µM, first compound 0.03 µM
[57] = second compound 1 µM, first compound 0.0949 µM
[58] = second compound 1 µM, first compound 0.3 µM
[59] = second compound 1 µM, first compound 0.949 µM
[60] = second compound 1 µM, first compound 3 µM
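Note: spheroids exposed to agents for 7 days before readout.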
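Throughout, for viability, T/C: 100% = DMSO vehicle control viability.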

C#Cc1c(F)ccc2cc(O)cc(-c3ncc4c(N5CC6CCC(C5)N6)nc(OCC56CCCN5CC(F)C6)nc4c3F)c12 (stereo not given) + CNC(C)C(=O)NC1CN(S(=O)(=O)c2cccc(S(=O)(=O)N3CCC4CCC(C(=O)NC(c5ccccc5)c5ccccc5)N4C(=O)C(NC(=O)C(C)NC)C3)c2)CCC2CCC(C(=O)NC(c3ccccc3)c3ccccc3)N2C1=O
< 0.0316 µM: IC50 (second compound 0.01 µM) | IC50 (second compound 0.0316 µM) | IC50 (second compound 0.1 µM) | IC50 (second compound 0.316 µM) | IC50 (second compound 1 µM)
inactive: viability, T/C [1] 22.8% | viability, T/C [2] 22.5% | viability, T/C [3] 20.6% | viability, T/C [4] 16.3% | viability, T/C [5] 19.2% | viability, T/C [6] 18.2% | viability, T/C [7] 20.3% | viability, T/C [8] 25.8% | viability, T/C [9] 19.4% | viability, T/C [10] 13.4% | viability, T/C [11] 17.7% | viability, T/C [12] 19.9% | viability, T/C [13] 22.1% | viability, T/C [14] 16.6% | viability, T/C [15] 21.6% | viability, T/C [16] 15.7% | viability, T/C [17] 18.3% | viability, T/C [18] 17% | viability, T/C [19] 20.8% | viability, T/C [20] 17.1% | viability, T/C [21] 18.1% | viability, T/C [22] 22.8% | viability, T/C [23] 17.3% | viability, T/C [24] 13.9% | viability, T/C [25] 21.6% | viability, T/C [26] 18.7% | viability, T/C [27] 27.5% | viability, T/C [28] 26.6% | viability, T/C [29] 19.7% | viability, T/C [30] 16.8%

C=C(F)C(=O)N1CCN(c2nc(OCC3CCCN3C)nc3c2CCN(c2cccc4cccc(Cl)c24)C3)CC1CC#N (stereo not given) + CNC(C)C(=O)NC1CN(S(=O)(=O)c2cccc(S(=O)(=O)N3CCC4CCC(C(=O)NC(c5ccccc5)c5ccccc5)N4C(=O)C(NC(=O)C(C)NC)C3)c2)CCC2CCC(C(=O)NC(c3ccccc3)c3ccccc3)N2C1=O
5.44 µM: IC50 (second compound 1 µM)
5.72 µM: IC50 (second compound 0.1 µM)
active: viability, T/C [6] 0.23% | viability, T/C [12] 0.23% | viability, T/C [18] 5.12% | viability, T/C [24] 0.31% | viability, T/C [30] 1.89%
5.38 µM: IC50 (second compound 0.01 µM)
5.41 µM: IC50 (second compound 0.0316 µM)
5.6 µM: IC50 (second compound 0.316 µM)
inactive: viability, T/C [1] 87.1% | viability, T/C [2] 93.1% | viability, T/C [3] 100% | viability, T/C [4] 98.4% | viability, T/C [5] 92.6% | viability, T/C [7] 100% | viability, T/C [8] 95.6% | viability, T/C [9] 81.3% | viability, T/C [10] 90.6% | viability, T/C [11] 99.7% | viability, T/C [13] 111% | viability, T/C [14] 106% | viability, T/C [15] 79.8% | viability, T/C [16] 93.4% | viability, T/C [17] 98.2% | viability, T/C [19] 119% | viability, T/C [20] 103% | viability, T/C [21] 84% | viability, T/C [22] 91.1% | viability, T/C [23] 99% | viability, T/C [25] 85.9% | viability, T/C [26] 102% | viability, T/C [27] 92% | viability, T/C [28] 94.7% | viability, T/C [29] 93%

CCN1C(C(=O)NC23CCC(C(=O)O)(CC2)CC3)C(c2cccc(Cl)c2F)C2(C(=O)Nc3cc(Cl)ccc32)C12CCCCC2 (stereo not given) + CNC(C)C(=O)NC1CN(S(=O)(=O)c2cccc(S(=O)(=O)N3CCC4CCC(C(=O)NC(c5ccccc5)c5ccccc5)N4C(=O)C(NC(=O)C(C)NC)C3)c2)CCC2CCC(C(=O)NC(c3ccccc3)c3ccccc3)N2C1=O
inactive: viability, T/C [31] 107% | viability, T/C [32] 112% | viability, T/C [33] 90.5% | viability, T/C [34] 91.9% | viability, T/C [35] 112% | viability, T/C [36] 116% | viability, T/C [37] 119% | viability, T/C [38] 114% | viability, T/C [39] 100% | viability, T/C [40] 114% | viability, T/C [41] 97.1% | viability, T/C [42] 97% | viability, T/C [43] 91.2% | viability, T/C [44] 116% | viability, T/C [45] 97.2% | viability, T/C [46] 101% | viability, T/C [47] 114% | viability, T/C [48] 118% | viability, T/C [49] 94.9% | viability, T/C [50] 106% | viability, T/C [51] 106% | viability, T/C [52] 98.6% | viability, T/C [53] 96.1% | viability, T/C [54] 119% | viability, T/C [55] 83.3% | viability, T/C [56] 108% | viability, T/C [57] 115% | viability, T/C [58] 103% | viability, T/C [59] 105% | viability, T/C [60] 108%
> 3 µM: IC50 (second compound 0.01 µM) | IC50 (second compound 0.0316 µM) | IC50 (second compound 0.1 µM) | IC50 (second compound 0.316 µM) | IC50 (second compound 1 µM)

Cc1nc(N2CCC3(CC2)COC(C)C3N)c(CO)nc1Sc1ccnc(N)c1Cl (stereo not given) + CNC(C)C(=O)NC1CN(S(=O)(=O)c2cccc(S(=O)(=O)N3CCC4CCC(C(=O)NC(c5ccccc5)c5ccccc5)N4C(=O)C(NC(=O)C(C)NC)C3)c2)CCC2CCC(C(=O)NC(c3ccccc3)c3ccccc3)N2C1=O
0.613 µM: IC50 (second compound 0.01 µM)
0.271 µM: IC50 (second compound 0.1 µM)
0.888 µM: IC50 (second compound 0.0316 µM)
> 3 µM: IC50 (second compound 0.316 µM)
1.48 µM: IC50 (second compound 1 µM)
inactive: viability, T/C [31] 86.7% | viability, T/C [32] 67.7% | viability, T/C [33] 64.6% | viability, T/C [34] 49% | viability, T/C [35] 48.9% | viability, T/C [36] 46.2% | viability, T/C [37] 83.6% | viability, T/C [38] 72% | viability, T/C [39] 66.7% | viability, T/C [40] 46% | viability, T/C [41] 50.4% | viability, T/C [42] 52.6% | viability, T/C [43] 84.3% | viability, T/C [44] 68.1% | viability, T/C [45] 58.9% | viability, T/C [46] 43% | viability, T/C [47] 52.1% | viability, T/C [48] 46.9% | viability, T/C [49] 93.3% | viability, T/C [50] 65.3% | viability, T/C [51] 64.4% | viability, T/C [52] 51.9% | viability, T/C [53] 53.9% | viability, T/C [54] 51.6% | viability, T/C [55] 76.7% | viability, T/C [56] 59.3% | viability, T/C [57] 62.2% | viability, T/C [58] 50.9% | viability, T/C [59] 57.2% | viability, T/C [60] 45%
